Several values for one entry are separate records, joined by “and”; a condition that tells them apart may be missing. Equal values may be shown once.
Legend:
Assay in all cases: MTT assay, growth inhibition by deguelin or deguelin derivatives
Type in all cases: cell-based
Details in all cases: 3 days; for % control: control = 1
H1299 = tested on: H1299
H596 = tested on: H596
H460 = tested on: H460
A549 = tested on: A549

COc1cc2c(cc1OC)C1C(=O)c3ccc4c(c3OC1CO2)CCC(C)(C)O4 (stereo not drawn) [Drug 11]
Average (MTT assay reading) (H1299; H1299, 0.01 μM): 0.5019 | MTT assay reading, replicate well (H1299; H1299, 0.01 μM): 0.573 and 0.553 and 0.567 and 0.483 and 0.493 and 0.424 and 0.42 | % control (H1299; H1299, 0.01 μM): 0.65 | Average (MTT assay reading) (H1299; H1299, 0.1 μM): 0.2847 | MTT assay reading, replicate well (H1299; H1299, 0.1 μM): 0.302 and 0.338 and 0.317 and 0.271 and 0.215 and 0.272 and 0.278 | % control (H1299; H1299, 0.1 μM): 0.37 | Average (MTT assay reading) (H1299; H1299, 0.5 μM): 0.3656 | MTT assay reading, replicate well (H1299; H1299, 0.5 μM): 0.275 and 0.579 and 0.324 and 0.32 and 0.398 and 0.294 and 0.369 | % control (H1299; H1299, 0.5 μM): 0.48 | Average (MTT assay reading) (H1299; H1299, 1 μM): 0.2179 | MTT assay reading, replicate well (H1299; H1299, 1 μM): 0.157 and 0.202 and 0.236 and 0.233 and 0.217 and 0.262 and 0.218 | % control (H1299; H1299, 1 μM): 0.28 | Average (MTT assay reading) (H596; H596, 0.01 μM): 1.262 | MTT assay reading, replicate well (H596; H596, 0.01 μM): 1.286 and 1.422 and 1.376 and 1.041 and 1.247 and 1.293 and 1.168 | % control (H596; H596, 0.01 μM): 0.76 | Average (MTT assay reading) (H596; H596, 0.1 μM): 0.6487 | MTT assay reading, replicate well (H596; H596, 0.1 μM): 0.677 and 0.894 and 0.729 and 0.59 and 0.476 and 0.579 and 0.596 | % control (H596; H596, 0.1 μM): 0.39 | Average (MTT assay reading) (H596; H596, 0.5 μM): 0.4131 | MTT assay reading, replicate well (H596; H596, 0.5 μM): 0.469 and 0.448 and 0.439 and 0.322 and 0.282 and 0.424 and 0.508 | % control (H596; H596, 0.5 μM): 0.25 | Average (MTT assay reading) (H596; H596, 1 μM): 0.4389 | MTT assay reading, replicate well (H596; H596, 1 μM): 0.385 and 0.377 and 0.447 and 0.585 and 0.404 and 0.429 and 0.445 | % control (H596; H596, 1 μM): 0.26 | Average (MTT assay reading) (H460; H460, 0.01 μM): 0.6664 | MTT assay reading, replicate well (H460; H460, 0.01 μM): 0.67 and 0.672 and 0.578 and 0.697 and 0.719 and 0.651 and 0.678 | % control (H460; H460, 0.01 μM): 0.57 | Average (MTT assay reading) (H460; H460, 0.1 μM): 0.3214 | MTT assay reading, replicate well (H460; H460, 0.1 μM): 0.352 and 0.354 and 0.375 and 0.234 and 0.26 and 0.303 and 0.372 | % control (H460; H460, 0.1 μM): 0.27 | Average (MTT assay reading) (H460; H460, 0.5 μM): 0.3358 | MTT assay reading, replicate well (H460; H460, 0.5 μM): 0.372 and 0.35 and 0.36 and 0.296 and 0.2577 and 0.283 and 0.432 | % control (H460; H460, 0.5 μM): 0.29 | Average (MTT assay reading) (H460; H460, 1 μM): 0.3296 | MTT assay reading, replicate well (H460; H460, 1 μM): 0.314 (2×) and 0.376 and 0.344 and 0.302 and 0.291 and 0.366 | % control (H460; H460, 1 μM): 0.28 | Average (MTT assay reading) (A549; A549, 0.01 μM): 0.7456 | MTT assay reading, replicate well (A549; A549, 0.01 μM): 0.779 and 0.766 and 0.723 and 0.736 and 0.77 and 0.75 and 0.695 | % control (A549; A549, 0.01 μM): 1.29 | Average (MTT assay reading) (A549; A549, 0.1 μM): 0.3701 | MTT assay reading, replicate well (A549; A549, 0.1 μM): 0.343 and 0.313 and 0.358 and 0.362 and 0.405 and 0.375 and 0.435 | % control (A549; A549, 0.1 μM): 0.64 | Average (MTT assay reading) (A549; A549, 0.5 μM): 0.4303 | MTT assay reading, replicate well (A549; A549, 0.5 μM): 0.355 and 0.444 and 0.514 and 0.418 and 0.47 and 0.413 and 0.398 | % control (A549; A549, 0.5 μM): 0.75 | Average (MTT assay reading) (A549; A549, 1 μM): 0.345 | MTT assay reading, replicate well (A549; A549, 1 μM): 0.303 and 0.302 and 0.313 and 0.359 and 0.422 and 0.316 and 0.4 | % control (A549; A549, 1 μM): 0.60

COc1cc2c(cc1OC)C1C(=O)c3ccc4c(c3OC1CO2)CC([Se]c1ccccc1)C(C)(C)O4 (stereo not drawn) [Drug 12]
Average (MTT assay reading) (H1299; H1299, 0.01 μM): 0.5509 | MTT assay reading, replicate well (H1299; H1299, 0.01 μM): 0.513 and 0.438 and 0.626 and 0.426 and 0.609 and 0.729 and 0.515 | % control (H1299; H1299, 0.01 μM): 0.72 | Average (MTT assay reading) (H1299; H1299, 0.1 μM): 0.4999 | MTT assay reading, replicate well (H1299; H1299, 0.1 μM): 0.514 and 0.55 and 0.568 and 0.409 and 0.465 and 0.466 and 0.527 | % control (H1299; H1299, 0.1 μM): 0.65 | Average (MTT assay reading) (H1299; H1299, 0.5 μM): 0.628 | MTT assay reading, replicate well (H1299; H1299, 0.5 μM): 0.637 and 0.549 and 0.636 and 0.614 and 0.847 and 0.655 and 0.458 | % control (H1299; H1299, 0.5 μM): 0.82 | Average (MTT assay reading) (H1299; H1299, 1 μM): 0.4001 | MTT assay reading, replicate well (H1299; H1299, 1 μM): 0.434 and 0.41 and 0.413 and 0.451 and 0.378 and 0.357 and 0.358 | % control (H1299; H1299, 1 μM): 0.52 | Average (MTT assay reading) (H596; H596, 0.01 μM): 1.421 | MTT assay reading, replicate well (H596; H596, 0.01 μM): 1.468 and 1.111 and 1.465 and 1.374 and 1.701 and 1.481 and 1.344 | % control (H596; H596, 0.01 μM): 0.86 | Average (MTT assay reading) (H596; H596, 0.1 μM): 1.683 | MTT assay reading, replicate well (H596; H596, 0.1 μM): 1.911 and 1.663 and 1.92 and 1.666 and 1.398 and 1.603 and 1.623 | % control (H596; H596, 0.1 μM): 1.01 | Average (MTT assay reading) (H596; H596, 0.5 μM): 1.737 | MTT assay reading, replicate well (H596; H596, 0.5 μM): 1.686 and 1.82 and 1.177 and 1.899 and 1.872 and 2.048 and 1.655 | % control (H596; H596, 0.5 μM): 1.05 | Average (MTT assay reading) (H596; H596, 1 μM): 1.531 | MTT assay reading, replicate well (H596; H596, 1 μM): 1.143 and 1.448 and 1.604 and 1.637 and 1.497 and 1.557 and 1.828 | % control (H596; H596, 1 μM): 0.92 | Average (MTT assay reading) (H460; H460, 0.01 μM): 0.7451 | MTT assay reading, replicate well (H460; H460, 0.01 μM): 0.763 and 0.753 and 0.691 and 0.648 and 0.765 and 0.774 and 0.822 | % control (H460; H460, 0.01 μM): 0.64 | Average (MTT assay reading) (H460; H460, 0.1 μM): 0.721 | MTT assay reading, replicate well (H460; H460, 0.1 μM): 0.603 and 0.593 and 0.691 and 0.781 and 0.732 and 0.815 and 0.832 | % control (H460; H460, 0.1 μM): 0.62 | Average (MTT assay reading) (H460; H460, 0.5 μM): 0.7127 | MTT assay reading, replicate well (H460; H460, 0.5 μM): 0.621 and 0.714 and 0.653 and 0.739 and 0.77 and 0.758 and 0.734 | % control (H460; H460, 0.5 μM): 0.61 | Average (MTT assay reading) (H460; H460, 1 μM): 0.7406 | MTT assay reading, replicate well (H460; H460, 1 μM): 0.709 and 0.659 and 0.698 and 0.79 and 0.717 and 0.805 and 0.806 | % control (H460; H460, 1 μM): 0.63 | Average (MTT assay reading) (A549; A549, 0.01 μM): 0.6226 | MTT assay reading, replicate well (A549; A549, 0.01 μM): 0.58 and 0.633 and 0.616 and 0.636 and 0.715 and 0.577 and 0.601 | % control (A549; A549, 0.01 μM): 1.08 | Average (MTT assay reading) (A549; A549, 0.1 μM): 0.6147 | MTT assay reading, replicate well (A549; A549, 0.1 μM): 0.604 and 0.545 and 0.597 and 0.519 and 0.606 and 0.719 and 0.713 | % control (A549; A549, 0.1 μM): 1.06 | Average (MTT assay reading) (A549; A549, 0.5 μM): 0.5669 | MTT assay reading, replicate well (A549; A549, 0.5 μM): 0.533 and 0.614 and 0.532 and 0.584 and 0.567 and 0.553 and 0.585 | % control (A549; A549, 0.5 μM): 0.98 | Average (MTT assay reading) (A549; A549, 1 μM): 0.5701 | MTT assay reading, replicate well (A549; A549, 1 μM): 0.534 and 0.536 and 0.557 and 0.571 and 0.586 (2×) and 0.621 | % control (A549; A549, 1 μM): 0.99

Source: US20060128792A1, “Deguelin as a chemopreventive agent for lung cancer” (priority 2002, published 2006)
